Experiments:
Hela-S3 cells = experiment: Cytotoxicity to Hela-S3 cells (colony formation); assay type: cell-based; settings: sensitized 2 hours at 37°C, colonies counted in 72 hours
Method: Hela-S3 cells (1 x 10⁴ cells/ml) were applied to an Eagle's MEM medium or a 10 % fresh calf serum-containing Eagle's MEM medium, and Agrimoniin was added thereto to sensitize the cells at 37°C for 2 hours. The concentration of the Agrimoniin added was variously varied. After sensitization, the cells were washed with Hanks' solution and then incubated in a CO₂ incubator containing a 10 % fresh calf serum-containing Eagle's MEM medium at 37°C for 72 hours. […] In addition, IC₅₀ of Agrimoniin to Hela-S3 cells in the 10 % fresh calf serum-containing Eagle's MEM medium was improved to be 57.4 µg/ml. From these experiments, it is noted that ellagitannins have a relatively strong direct cytotoxic action but the cytotoxic action may be reduced by addition of proteins such as serum to the culture medium.

ddy mice = experiment: LD50 by probit method; assay type: in vivo
Source text: 50 % lethal dose (LD₅₀) of Coriariin A to ddy mice was obtained by probit method.

## O=C(O[C@H]1O[C@@H]2COC(=O)c3cc(O)c(O)c(O)c3-c3c(cc(O)c(O)c3O)C(=O)O[C@H]2[C@@H]2OC(=O)c3cc(O)c(O)c(O)c3-c3c(cc(O)c(O)c3O)C(=O)O[C@@H]12)c1cc(O)c(O)c(Oc2c(C(=O)O[C@H]3O[C@@H]4COC(=O)c5cc(O)c(O)c(O)c5-c5c(cc(O)c(O)c5O)C(=O)O[C@H]4[C@@H]4OC(=O)c5cc(O)c(O)c(O)c5-c5c(cc(O)c(O)c5O)C(=O)O[C@@H]34)cc(O)c(O)c2O)c1 [Agrimoniin]
Hela-S3 cells; 10 % fresh calf serum-containing Eagle's MEM medium
  50 % cell-inhibiting concentration (IC₅₀): 57.4 µg/mL
Hela-S3 cells; Eagle's MEM medium
  50 % cell-inhibiting concentration (IC₅₀): 7.3 µg/mL

## O=C(O[C@@H]1O[C@@H]2COC(=O)c3cc(O)c(O)c(O)c3-c3c(cc(O)c(O)c3O)C(=O)O[C@H]2[C@H](OC(=O)c2cc(O)c(O)c(O)c2)[C@H]1OC(=O)c1cc(O)c(O)c(O)c1)c1cc(O)c(O)c(Oc2c(C(=O)O[C@H]3O[C@@H]4COC(=O)c5cc(O)c(O)c(O)c5-c5c(cc(O)c(O)c5O)C(=O)O[C@H]4[C@H](OC(=O)c4cc(O)c(O)c(O)c4)[C@H]3OC(=O)c3cc(O)c(O)c(O)c3)cc(O)c(O)c2O)c1 [Coriariin A]
Ddy mice; Intraabdominal, Female
  LD₅₀: 119.1 mg/kg
Ddy mice; Intraabdominal, Male
  LD₅₀: 120.2 mg/kg
Ddy mice; Intravenous, Female
  LD₅₀: 36.8 mg/kg
Ddy mice; Intravenous, Male
  LD₅₀: 37.5 mg/kg
Ddy mice; Peroral, Female
  LD₅₀: 1000 or more mg/kg
Ddy mice; Peroral, Male
  LD₅₀: 1000 or more mg/kg
